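The compound was tested at five concentrations on cells cultured in 96-well plates, with a 48-hour exposure period. TGI marks complete inhibition of growth.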
Tests used:
Assay in all cases: DTP human tumour cell line panel, 48 h
NCI-H460 lung = system: NCI-H460 lung
T-47D breast = system: T-47D breast
SK-MEL-28 melanoma = system: SK-MEL-28 melanoma
TK-10 renal = system: TK-10 renal
SK-MEL-5 melanoma = system: SK-MEL-5 melanoma
SN12C renal = system: SN12C renal
NCI-H226 lung = system: NCI-H226 lung
SW-620 colon = system: SW-620 colon
MDA-MB-435 = system: MDA-MB-435
OVCAR-8 ovarian = system: OVCAR-8 ovarian
SNB-19 CNS = system: SNB-19 CNS
EKVX NSCLC = system: EKVX NSCLC
SF-295 CNS = system: SF-295 CNS
DU-145 prostate = system: DU-145 prostate
UACC-257 melanoma = system: UACC-257 melanoma
IGROV1 ovarian = system: IGROV1 ovarian
OVCAR-3 ovarian = system: OVCAR-3 ovarian
OVCAR-4 ovarian = system: OVCAR-4 ovarian

Row | SMILES | TGI (NCI-H460 lung) [µM] | TGI (T-47D breast) [µM] | TGI (SK-MEL-28 melanoma) [µM] | TGI (TK-10 renal) [µM] | TGI (SK-MEL-5 melanoma) [µM] | TGI (SN12C renal) [µM] | TGI (NCI-H226 lung) [µM] | TGI (SW-620 colon) [µM] | TGI (MDA-MB-435) [µM] | TGI (OVCAR-8 ovarian) [µM] | TGI (SNB-19 CNS) [µM] | TGI (EKVX NSCLC) [µM] | TGI (SF-295 CNS) [µM] | TGI (DU-145 prostate) [µM] | TGI (UACC-257 melanoma) [µM] | TGI (IGROV1 ovarian) [µM] | TGI (OVCAR-3 ovarian) [µM] | TGI (OVCAR-4 ovarian) [µM]
1 | CCCCCCCC(CC(=O)NC(CO)C(=O)NC(CO)CC(C)C)OC(=O)CC(CCCCCCC)OC(=O)CC(CCCCCCC)OC1OC(C)C(O)C(OC2OC(C)C(O)C(O)C2O)C1O (stereo unspecified) | 19.1 | 26.6 | 21.2 | 30.8 | 21.3 | 28.7 | 38.7 | 33.4 | 19.5 | 34.4 | 26.1 | 41.8 | 27.1 | 25.3 | 26.6 | 26.4 | 26.9 | 28
2 | COc1ccc2c(c1)-c1nc(=O)n(CCCN(C)C)c3ccc([N+](=O)[O-])c(c13)N2 | 15.1 | 32.2 | 4.3 | 7.17 | 4.4 | 13.8 | 27.5 | > 44.3 | 32.2 | 19.4 | 8.58 | 6.45 | 20.8 | 17.1 | 6.85 | 12.3 | 19.4 | 7.34
3 | Cc1cc(C)c(S(=O)(=O)N(CCCN)OCCON(CCCN)S(=O)(=O)c2c(C)cc(C)cc2C)c(C)c1 | 17 | > 45.1 | 31 | 42.8 | > 100 | > 100 | 18.1 | > 100 | > 23.6 | 47.7 | 4.37 | 20.6 | 67 | > 100 | 36.5 | 4.67 | 3.93 | 10.3
4 | O=C(c1ccccc1)C(Nc1ccc2ccccc2c1)c1ccccc1 (stereo unspecified) | > 100 | > 100 | > 100 | > 100 | 36 | > 100 | > 100 | > 100 | > 48 | > 100 | > 100 | > 100 | > 100 | > 100 | 48.2 | > 100 | 78.2 | > 100
5 | CCCCCCCCCCCCCCCC(=O)Nc1ccn(C2CCC(COP(=O)(O)OCC3OC(n4cc(F)c(=O)[nH]c4=O)CC3OC(C)=O)O2)c(=O)n1 (stereo unspecified) | > 100 | > 66.5 | 43.8 | > 76.7 | 26.9 | > 73.7 | > 100 | > 52.5 | 44.2 | > 72.2 | 35.2 | > 100 | 29.6 | > 100 | 53.6 | > 100 | 59 | > 86.5
6 | CC(Cc1cccc2c1Nc1ccccc1S2)N(C)CCO (stereo unspecified) | > 100 | > 100 | > 100 | > 100 | > 100 | > 100 | > 100 | > 100 | > 100 | > 100 | > 100 | > 100 | > 100 | > 100 | > 100 | > 100 | > 100 | > 100
7 | COc1ccccc1N1C(=O)CSC1c1cc(OC)c(OC)c(OC)c1 (stereo unspecified) | > 100 | > 38.3 | > 100 | > 100 | > 100 | > 100 | > 100 | > 100 | 40 | > 100 | > 20.8 | > 100 | > 100 | > 100 | > 100 | > 100 | > 100 | > 100
